According to ChEMBL document CHEMBL1909046, “DrugMatrix in vitro pharmacology data”:

Columns and labels:
[1] = target: T1, Alpha-1A adrenergic receptor (Rattus norvegicus, UniProt P43140); experiment: DRUGMATRIX: Alpha-1A adrenergic receptor radioligand binding (ligand: prazosin); format: cell membranes, Wistar, Submaxillary gland, Membrane; settings: Not Active = under 50% inhibition at 10 µM
T1 sequence (P43140 whole entry): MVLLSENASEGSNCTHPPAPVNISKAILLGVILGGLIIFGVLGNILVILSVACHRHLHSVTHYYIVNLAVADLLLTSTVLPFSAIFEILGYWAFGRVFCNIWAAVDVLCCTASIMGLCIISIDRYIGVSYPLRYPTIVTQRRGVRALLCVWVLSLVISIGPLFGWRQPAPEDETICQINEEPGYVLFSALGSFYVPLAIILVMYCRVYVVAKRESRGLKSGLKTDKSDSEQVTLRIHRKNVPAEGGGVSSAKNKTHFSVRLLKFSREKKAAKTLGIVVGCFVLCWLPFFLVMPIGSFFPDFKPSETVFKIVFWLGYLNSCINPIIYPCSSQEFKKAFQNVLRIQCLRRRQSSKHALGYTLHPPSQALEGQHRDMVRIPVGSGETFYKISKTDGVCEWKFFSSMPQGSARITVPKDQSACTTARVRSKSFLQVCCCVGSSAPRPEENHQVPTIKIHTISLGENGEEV

[2] = target: T2, Type-2 angiotensin II receptor (Homo sapiens, UniProt P50052); format: cell-based; settings: cho-k1; also: in other assays of this panel Not Active means under 50% inhibition at 10 µM
T2 sequence (P50052 whole entry): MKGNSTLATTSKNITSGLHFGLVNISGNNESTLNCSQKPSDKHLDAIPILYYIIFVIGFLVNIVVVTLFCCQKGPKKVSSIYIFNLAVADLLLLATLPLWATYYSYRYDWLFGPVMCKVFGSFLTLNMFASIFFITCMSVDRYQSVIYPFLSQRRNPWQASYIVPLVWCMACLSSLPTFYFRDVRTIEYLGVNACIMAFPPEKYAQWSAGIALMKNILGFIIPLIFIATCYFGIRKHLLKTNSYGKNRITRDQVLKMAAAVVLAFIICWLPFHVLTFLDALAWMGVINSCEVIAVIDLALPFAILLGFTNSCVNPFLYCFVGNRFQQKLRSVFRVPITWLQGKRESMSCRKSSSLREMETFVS

[3] = target: Vascular endothelial growth factor receptor 1 (Homo sapiens, UniProt P17948); format: cell-based; settings: huvec; also: in other assays of this panel Not Active means under 50% inhibition at 10 µM
Vascular endothelial growth factor receptor 1, sequence (P17948 whole entry): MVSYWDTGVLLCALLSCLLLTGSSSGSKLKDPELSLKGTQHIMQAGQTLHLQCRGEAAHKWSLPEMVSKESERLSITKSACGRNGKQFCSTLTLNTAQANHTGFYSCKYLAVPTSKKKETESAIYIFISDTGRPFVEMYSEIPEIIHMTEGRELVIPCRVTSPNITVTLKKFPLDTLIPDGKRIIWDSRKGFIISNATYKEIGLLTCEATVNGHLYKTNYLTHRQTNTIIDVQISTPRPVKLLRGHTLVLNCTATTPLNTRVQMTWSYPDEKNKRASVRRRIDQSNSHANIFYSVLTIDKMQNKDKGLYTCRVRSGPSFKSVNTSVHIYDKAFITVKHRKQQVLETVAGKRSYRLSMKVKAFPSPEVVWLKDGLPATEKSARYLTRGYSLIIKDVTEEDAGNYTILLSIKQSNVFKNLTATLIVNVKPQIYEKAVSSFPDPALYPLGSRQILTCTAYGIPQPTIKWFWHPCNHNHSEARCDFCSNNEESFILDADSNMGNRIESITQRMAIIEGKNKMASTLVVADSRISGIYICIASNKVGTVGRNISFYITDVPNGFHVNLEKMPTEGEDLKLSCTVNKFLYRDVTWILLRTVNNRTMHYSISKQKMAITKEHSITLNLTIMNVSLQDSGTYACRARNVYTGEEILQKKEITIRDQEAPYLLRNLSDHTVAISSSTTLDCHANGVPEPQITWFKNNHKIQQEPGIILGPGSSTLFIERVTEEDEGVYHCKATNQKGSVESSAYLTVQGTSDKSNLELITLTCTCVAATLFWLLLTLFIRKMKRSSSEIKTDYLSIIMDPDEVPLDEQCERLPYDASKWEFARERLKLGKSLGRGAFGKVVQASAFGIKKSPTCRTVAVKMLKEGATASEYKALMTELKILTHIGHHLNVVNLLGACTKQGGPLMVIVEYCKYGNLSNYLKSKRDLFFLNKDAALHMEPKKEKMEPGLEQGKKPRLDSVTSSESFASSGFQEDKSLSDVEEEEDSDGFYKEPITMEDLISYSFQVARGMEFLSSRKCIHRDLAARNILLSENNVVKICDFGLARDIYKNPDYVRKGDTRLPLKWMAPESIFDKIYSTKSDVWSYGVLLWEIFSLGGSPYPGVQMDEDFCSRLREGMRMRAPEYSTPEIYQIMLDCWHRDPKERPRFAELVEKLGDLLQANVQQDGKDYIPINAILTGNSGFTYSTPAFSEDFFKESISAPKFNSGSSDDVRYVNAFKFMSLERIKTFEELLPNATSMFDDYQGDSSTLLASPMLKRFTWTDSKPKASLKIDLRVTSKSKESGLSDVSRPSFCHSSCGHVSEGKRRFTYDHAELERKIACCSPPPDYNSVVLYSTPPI

[4] = target: T3, Vasoactive intestinal polypeptide receptor 1 (Homo sapiens, UniProt P32241); format: cell membranes, Membrane; settings: ht-29; also: in other assays of this panel Not Active means under 50% inhibition at 10 µM
T3 sequence (P32241 whole entry): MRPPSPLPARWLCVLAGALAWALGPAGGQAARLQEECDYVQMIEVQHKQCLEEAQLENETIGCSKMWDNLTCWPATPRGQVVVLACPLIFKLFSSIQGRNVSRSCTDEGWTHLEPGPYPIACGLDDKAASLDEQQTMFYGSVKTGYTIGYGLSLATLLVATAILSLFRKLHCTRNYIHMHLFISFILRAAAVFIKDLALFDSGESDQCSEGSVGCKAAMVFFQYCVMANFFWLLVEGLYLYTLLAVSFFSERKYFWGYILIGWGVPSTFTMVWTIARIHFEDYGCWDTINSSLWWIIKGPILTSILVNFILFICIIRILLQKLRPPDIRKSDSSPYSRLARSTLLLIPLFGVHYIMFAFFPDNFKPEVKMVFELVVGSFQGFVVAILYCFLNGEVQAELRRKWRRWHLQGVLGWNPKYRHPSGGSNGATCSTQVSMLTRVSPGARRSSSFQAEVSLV

Carbonic anhydrase 2 = Carbonic anhydrase 2 (Homo sapiens, UniProt P00918); experiment: DRUGMATRIX: Carbonic Anhydrase II enzyme inhibition (substrate: 4-Nitrophenyl acetate (4-NPA)); format: tissue-based, Erythrocyte; settings: erythrocyte; Not Active = under 50% inhibition at 10 µM
[5] = target: T4, Neuropeptide Y receptor type 2 (Homo sapiens, UniProt P49146); format: cell membranes, Membrane; settings: kan-ts; also: in other assays of this panel Not Active means under 50% inhibition at 10 µM
T4 sequence (P49146 whole entry): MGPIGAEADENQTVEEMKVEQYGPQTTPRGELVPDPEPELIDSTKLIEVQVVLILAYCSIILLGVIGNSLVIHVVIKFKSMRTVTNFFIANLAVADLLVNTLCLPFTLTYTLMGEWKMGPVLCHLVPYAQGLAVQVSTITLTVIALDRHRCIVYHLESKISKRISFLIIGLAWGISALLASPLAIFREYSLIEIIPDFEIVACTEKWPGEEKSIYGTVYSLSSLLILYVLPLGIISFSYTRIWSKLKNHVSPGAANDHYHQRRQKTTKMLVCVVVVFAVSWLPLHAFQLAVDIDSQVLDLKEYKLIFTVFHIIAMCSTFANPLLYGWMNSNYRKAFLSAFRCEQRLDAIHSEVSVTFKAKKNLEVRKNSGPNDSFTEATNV

[6] = target: Delta-type opioid receptor (Homo sapiens, UniProt P41143); format: cell membranes, HEK293, Membrane; settings: hek293; also: in other assays of this panel Not Active means under 50% inhibition at 10 µM
Delta-type opioid receptor, sequence (P41143 whole entry): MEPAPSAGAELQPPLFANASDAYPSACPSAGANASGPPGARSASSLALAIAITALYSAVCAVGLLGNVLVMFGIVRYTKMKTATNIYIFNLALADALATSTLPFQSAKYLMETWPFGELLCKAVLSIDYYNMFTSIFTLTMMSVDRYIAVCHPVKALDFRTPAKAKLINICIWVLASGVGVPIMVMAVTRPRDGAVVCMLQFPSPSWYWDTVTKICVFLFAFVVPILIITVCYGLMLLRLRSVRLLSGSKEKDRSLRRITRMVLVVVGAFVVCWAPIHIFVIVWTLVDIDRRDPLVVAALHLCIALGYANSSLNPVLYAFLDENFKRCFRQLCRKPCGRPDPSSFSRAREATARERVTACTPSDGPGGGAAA

Cytochrome P450 1A2 = target: T5, Cytochrome P450 1A2 (Homo sapiens, UniProt P05177); settings: bti-tn-5b1-4; also: in other assays of this panel Not Active means under 50% inhibition at 10 µM
T5 sequence (P05177 whole entry): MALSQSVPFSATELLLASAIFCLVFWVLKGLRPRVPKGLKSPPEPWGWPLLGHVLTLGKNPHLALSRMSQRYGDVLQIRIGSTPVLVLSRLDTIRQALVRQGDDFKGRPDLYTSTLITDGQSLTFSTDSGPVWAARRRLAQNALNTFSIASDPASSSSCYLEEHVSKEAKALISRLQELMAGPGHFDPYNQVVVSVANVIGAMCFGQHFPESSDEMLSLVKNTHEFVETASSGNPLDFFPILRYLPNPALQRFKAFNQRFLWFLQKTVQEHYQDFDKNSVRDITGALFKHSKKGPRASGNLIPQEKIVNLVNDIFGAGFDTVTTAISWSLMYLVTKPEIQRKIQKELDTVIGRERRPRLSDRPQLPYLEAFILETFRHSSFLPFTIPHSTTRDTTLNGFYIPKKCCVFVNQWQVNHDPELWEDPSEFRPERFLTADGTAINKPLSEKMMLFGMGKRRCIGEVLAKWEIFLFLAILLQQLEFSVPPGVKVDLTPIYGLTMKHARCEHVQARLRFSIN

ClC1=C(Cl)[C@]2(Cl)[C@@H]3[C@@H]4C[C@@H]([C@H]5O[C@@H]45)[C@@H]3[C@@]1(Cl)C2(Cl)Cl [DIELDRIN]
Not Active: IC50 [1] | IC50 [2] | IC50 [3] | IC50 [4] | IC50 (Carbonic anhydrase 2) | IC50 [5] | IC50 [6] | IC50 (Cytochrome P450 1A2) | Ki (Cytochrome P450 1A2)

COPPER(II) OXIDE
Not Active: IC50 [1] | Ki [1] | IC50 [2] | Ki [2] | IC50 [3] | Ki [3] | IC50 [4] | Ki [4] | IC50 (Carbonic anhydrase 2) | Ki (Carbonic anhydrase 2) | IC50 [5] | Ki [5] | IC50 [6] | Ki [6] | IC50 (Cytochrome P450 1A2) | Ki (Cytochrome P450 1A2)

CCO [ALCOHOL]
Not Active: IC50 [1] | IC50 [2] | IC50 [3] | IC50 [4] | IC50 (Carbonic anhydrase 2) | IC50 [5] | IC50 [6] | IC50 (Cytochrome P450 1A2) | Ki (Cytochrome P450 1A2)

c1ccc2sc(SSc3nc4ccccc4s3)nc2c1 [BENZOTHIAZYL DISULFIDE]
Not Active: IC50 [1] | IC50 [2] | IC50 [3] | IC50 [4] | IC50 (Carbonic anhydrase 2) | IC50 [5] | IC50 [6] | IC50 (Cytochrome P450 1A2) | Ki (Cytochrome P450 1A2)

CC(C)Cc1ccc([C@H](C)C(=O)O)cc1 [DEXIBUPROFEN]
Not Active: IC50 [1] | IC50 [2] | IC50 [3] | IC50 [4] | IC50 (Carbonic anhydrase 2) | IC50 [5] | IC50 [6] | IC50 (Cytochrome P450 1A2) | Ki (Cytochrome P450 1A2)

Cl.NC[C@H]1CC[C@H](C(=O)Oc2ccc(CCC(=O)O)cc2)CC1 [CETRAXATE HYDROCHLORIDE]
Not Active: IC50 [1] | IC50 [2] | IC50 [3] | IC50 [4] | IC50 (Carbonic anhydrase 2) | IC50 [5] | IC50 [6] | IC50 (Cytochrome P450 1A2) | Ki (Cytochrome P450 1A2)

Nc1nc(N)c2nc(CNc3ccc(C(=O)N[C@@H](CCC(=O)O)C(=O)O)cc3)cnc2n1 [AMINOPTERIN]
Not Active: IC50 [1] | IC50 [2] | IC50 [3] | IC50 [4] | IC50 (Carbonic anhydrase 2) | IC50 [5] | IC50 [6] | IC50 (Cytochrome P450 1A2) | Ki (Cytochrome P450 1A2)

NC(=O)NC(=O)Cc1ccccc1 [PHENACEMIDE]
Not Active: IC50 [1] | IC50 [2] | IC50 [3] | IC50 [4] | IC50 (Carbonic anhydrase 2) | IC50 [5] | IC50 [6] | IC50 (Cytochrome P450 1A2) | Ki (Cytochrome P450 1A2)
